# Measured values from article PMC10648937, “Drug distribution and efficacy of the DprE1 inhibitor BTZ-043 in the C3HeB/FeJ mouse tuberculosis model” (Antimicrobial Agents and Chemotherapy, 2023).
# Several values for one entry are separate records, joined by “and”; a condition that tells them apart may be missing. Equal values may be shown once. Read-outs that look alike come from different tables or passages of the source.
# Tests used:
# [1] = system: Mtb Erdman; test: Efficacy in spleens of Mtb Erdman-infected C3HeB/FeJ mice (CFU, kill rates); assay type: in vivo, Mycobacterium tuberculosis; conditions: for kill rate k[0-28] (SE), spleens: day 0 to 28; for kill rate k[0-56] (SE), spleens: day 0 to 56; for kill rate k[28-56] (SE), spleens: day 28 to 56
# [2] = human; cited from earlier work
# [3] = C3HeB/FeJ, mouse, in vivo, 1 h
# [4] = system: Mtb Erdman; test: In vitro kill kinetics under replicating conditions; assay type: cell-based, Mycobacterium tuberculosis; conditions: 8× and 20× MIC, CFU/mL over 14 days
# [5] = system: Mtb Erdman-infected C3HeB/FeJ mice; test: Pulmonary histopathology (pathologist scores and LIRA) in C3HeB/FeJ mice; assay type: in vivo, mouse
# [6] = Plasma and lesion drug levels by LCM-LC/MS-MS in C3HeB/FeJ mice; conditions: 100 mg/kg
# [7] = system: non-replicating Mtb in rabbit caseum; test: Explanted rabbit caseum MBC assay; assay type: cell-based, Mycobacterium tuberculosis; conditions: test concentrations up to 512 µM, 7 days
# [8] = system: intracellular mycobacteria in macrophages; design: method as in PMID 19299584; conditions: cited from earlier work
# [9] = system: Mtb Erdman; test: Efficacy in lungs of Mtb Erdman-infected C3HeB/FeJ mice (CFU, kill rates); assay type: in vivo, Mycobacterium tuberculosis; conditions: for kill rate k[0-28] (SE), lungs, Type I (TI) subset / kill rate k[0-56] (SE), lungs, Type I (TI) subset / kill rate k[28-56] (SE), lungs, Type I (TI) subset: TI lesions; for kill rate k[0-28] (SE), lungs, Type III (TIII) subset / kill rate k[0-56] (SE), lungs, Type III (TIII) subset / kill rate k[28-56] (SE), lungs, Type III (TIII) subset: TIII lesions; for kill rate k[0-28] (SE), lungs: day 0 to 28; for kill rate k[0-56] (SE), lungs: day 0 to 56; for kill rate k[28-56] (SE), lungs: day 28 to 56
# [10] = system: non-growing streptomycin-dependent Mtb strain 18b; design: method as in PMID 20679505; conditions: cited from earlier work
# [11] = system: Mtb Erdman; test: Semi-quantitative MBC (sqMBC) assay; assay type: cell-based, Mycobacterium tuberculosis; conditions: M. tuberculosis Erdman; for sqMBC: 10 d incubation, 99% (2-log10) CFU reduction of inoculum; for sqMBC + huSA: with 4% huSA
# [12] = system: Mtb Erdman; test: Broth microdilution MIC (Alamar Blue endpoint), with and without 4% huSA (serum-shift assay); conditions: for shift in MIC in the presence of huSA: physiologic levels (4%) of huSA
# [13] = system: non-replicating Mtb in rabbit caseum; design: method as in PMID 34370580; conditions: similarly reported previously; cited from earlier work
# [14] = system: Mtb; design: method as in PMID 34370580; conditions: C3HeB/FeJ mice, 8 weeks (5 of 7 days per week), cited from earlier work
# [15] = 200 mg/kg QD, 8 weeks, group average
# [16] = 200 mg/kg QD, 8 weeks, mice Mx I to Mx L
# [17] = 50 mg/kg QD, 8 weeks of treatment
# [18] = 200 mg/kg QD, 8 weeks of treatment
# [19] = Mycobacterium tuberculosis, ERDMAN
# [20] = Mycobacterium tuberculosis, ERDMAN, read-out: MIC + huSA
smiles,measurement,setting,value
C[C@H]1COC2(CCN(c3nc(=O)c4cc(C(F)(F)F)cc([N+](=O)[O-])c4s3)CC2)O1 [BTZ-043],"kill rate k[0-28] (SE), spleens",[1]; 50 mg/kg QD,0.048 (0.006) log10CFU per day
same,"kill rate k[0-56] (SE), spleens",[1]; 50 mg/kg QD,0.026 (0.004) log10CFU per day
same,"kill rate k[28-56] (SE), spleens",[1]; 50 mg/kg QD,0.004 (0.007) log10CFU per day
same,"kill rate k[0-28] (SE), spleens",[1]; 100 mg/kg QD,0.046 (0.006) log10CFU per day
same,"kill rate k[0-56] (SE), spleens",[1]; 100 mg/kg QD,0.041 (0.003) log10CFU per day
same,"kill rate k[28-56] (SE), spleens",[1]; 100 mg/kg QD,0.036 (0.006) log10CFU per day
same,"kill rate k[0-28] (SE), spleens",[1]; 200 mg/kg QD,0.057 (0.005) log10CFU per day
same,"kill rate k[0-56] (SE), spleens",[1]; 200 mg/kg QD,0.046 (0.003) log10CFU per day
same,"kill rate k[28-56] (SE), spleens",[1]; 200 mg/kg QD,0.034 (0.006) log10CFU per day
same,mice with spleen CFU below the lower limit of detection,"[1]; 200 mg/kg, 8 weeks, limit 1.7 log10 CFU/spleen",4 out of 8
same,effect on spleen bacterial load,"[1]; 4 weeks of treatment, all dose groups, Dunnett's P = 0.003 to 0.0001",statistically significant reductions
same,effect on spleen burdens,"[1]; 8 weeks of treatment, Dunnett's P < 0.0001",statistically significant reductions
same,plasma protein binding,[2],99.4%
same,drug level in cellular lesion over the serum-shifted MIC,[3],121 fold
same,drug level in lung parenchyma over the serum-shifted MIC,[3],228 fold
same,drug level in plasma over the serum-shifted MIC,[3],237 fold
same,kill kinetics (cidality),[4],cidality
same,"percent lung involvement, Healthy Tissue (LIRA), average",[5]; [15],73.70%
same,"percent lung involvement, Type I - Caseum (LIRA), average",[5]; [15],10% and 10.01%
same,"percent lung involvement, Type I - Rim (LIRA), average",[5]; [15],4.85%
same,"percent lung involvement, Type II (LIRA), average",[5]; [15],0%
same,"percent lung involvement, Type III (LIRA), average",[5]; [15],11% and 11.44%
same,"percent lung involvement, Healthy Tissue (LIRA), individual mice",[5]; [16],90.59% and 66.70% and 47.22% and 90.31%
same,"percent lung involvement, Type I - Caseum (LIRA), individual mice",[5]; [16],2.82% and 6.51% and 30.69% and 0.00%
same,"percent lung involvement, Type I - Rim (LIRA), individual mice",[5]; [16],3.75% and 4.76% and 10.89% and 0.00%
same,"percent lung involvement, Type II (LIRA), individual mice",[5]; [16],0.00%
same,"percent lung involvement, Type III (LIRA), individual mice",[5]; [16],2.83% and 22.03% and 11.21% and 9.69%
same,histology scores by board-certified pathologist,"[5]; 200 mg/kg, 8 weeks of treatment, compared to untreated mice",improved overall histology scores
same,"drug levels in plasma, lung parenchyma, cellular lesion and cellular-caseum interface relative to serum-shifted MIC","[6]; 2.5 weeks, end of the dosing interval (24 h)",fell below the serum-shifted MIC
same,drug level in cellular-caseum interface over the serum-shifted MIC,"[6]; 5 of 7 days per week for 2.5 weeks, Tmax (1 h)",93 fold
same,activity against non-replicating Mtb in rabbit caseum MBC assay,[7],lacked appreciable activity
same,deduced MIC against intracellular mycobacteria in macrophages,[8],< 0.01 µg/mL
same,lung CFU reduction from the start of treatment,[9]; [17],~ 1.04 log10 CFU
same,lung CFU reduction versus untreated,[9]; [17],~ 2.43 log10 CFU
same,"kill rate k[0-28] (SE), lungs, Type I (TI) subset",[9]; 50 mg/kg QD,0.011 (0.010) log10CFU per day
same,"kill rate k[0-56] (SE), lungs, Type I (TI) subset",[9]; 50 mg/kg QD,0.023 (0.008) log10CFU per day
same,"kill rate k[28-56] (SE), lungs, Type I (TI) subset",[9]; 50 mg/kg QD,0.032 (0.015) log10CFU per day
same,"kill rate k[0-28] (SE), lungs, Type III (TIII) subset",[9]; 50 mg/kg QD,0.063 (0.007) log10CFU per day
same,"kill rate k[0-56] (SE), lungs, Type III (TIII) subset",[9]; 50 mg/kg QD,0.039 (0.007) log10CFU per day
same,"kill rate k[28-56] (SE), lungs, Type III (TIII) subset",[9]; 50 mg/kg QD,0.005 (0.010) log10CFU per day
same,"kill rate k[0-28] (SE), lungs",[9]; 50 mg/kg QD,0.022 log10CFU per day and 0.022 (0.018) log10CFU per day
same,"kill rate k[0-56] (SE), lungs",[9]; 50 mg/kg QD,0.019 (0.009) log10CFU per day
same,"kill rate k[28-56] (SE), lungs",[9]; 50 mg/kg QD,0.015 log10CFU per day and 0.015 (0.021) log10CFU per day
same,"kill rate k[0-28] (SE), lungs, Type I (TI) subset",[9]; 100 mg/kg QD,0.011 (0.011) log10CFU per day
same,"kill rate k[0-56] (SE), lungs, Type I (TI) subset",[9]; 100 mg/kg QD,0.047 (0.011) log10CFU per day
same,"kill rate k[28-56] (SE), lungs, Type I (TI) subset",[9]; 100 mg/kg QD,0.078 (0.017) log10CFU per day
same,"kill rate k[0-28] (SE), lungs, Type III (TIII) subset",[9]; 100 mg/kg QD,0.041 (0.007) log10CFU per day
same,"kill rate k[0-56] (SE), lungs, Type III (TIII) subset",[9]; 100 mg/kg QD,0.022 (0.005) log10CFU per day
same,"kill rate k[28-56] (SE), lungs, Type III (TIII) subset",[9]; 100 mg/kg QD,0.003 (0.015) log10CFU per day
same,"kill rate k[0-28] (SE), lungs",[9]; 100 mg/kg QD,0.006 log10CFU per day and 0.006 (0.013) log10CFU per day
same,"kill rate k[0-56] (SE), lungs",[9]; 100 mg/kg QD,0.031 (0.007) log10CFU per day
same,"kill rate k[28-56] (SE), lungs",[9]; 100 mg/kg QD,0.056 log10CFU per day and 0.056 (0.015) log10CFU per day
same,lung CFU reduction from the start of treatment,[9]; [18],~ 2.59 log10 CFU
same,lung CFU reduction versus untreated,[9]; [18],~ 3.98 log10 CFU
same,"kill rate k[0-28] (SE), lungs, Type I (TI) subset",[9]; 200 mg/kg QD,0.023 (0.011) log10CFU per day
same,"kill rate k[0-56] (SE), lungs, Type I (TI) subset",[9]; 200 mg/kg QD,0.042 (0.009) log10CFU per day
same,"kill rate k[28-56] (SE), lungs, Type I (TI) subset",[9]; 200 mg/kg QD,0.062 (0.014) log10CFU per day
same,"kill rate k[0-28] (SE), lungs, Type III (TIII) subset",[9]; 200 mg/kg QD,0.019 (0.009) log10CFU per day
same,"kill rate k[0-56] (SE), lungs, Type III (TIII) subset",[9]; 200 mg/kg QD,0.049 (0.005) log10CFU per day
same,"kill rate k[28-56] (SE), lungs, Type III (TIII) subset",[9]; 200 mg/kg QD,0.079 (0.015) log10CFU per day
same,"kill rate k[0-28] (SE), lungs",[9]; 200 mg/kg QD,0.005 log10CFU per day and 0.005 (0.010) log10CFU per day
same,"kill rate k[0-56] (SE), lungs",[9]; 200 mg/kg QD,0.046 (0.008) log10CFU per day
same,"kill rate k[28-56] (SE), lungs",[9]; 200 mg/kg QD,0.087 log10CFU per day and 0.087 (0.013) log10CFU per day
same,effect on lung bacterial load,"[9]; 4 weeks of treatment, all dose groups (50, 100, 200 mg/kg), Dunnett's P = 0.002 to 0.03",statistically significant reductions
same,effect on lung bacterial load,"[9]; 8 weeks of treatment, all dose groups, Dunnett's P < 0.0001",statistically significant reduction
same,activity against non-growing Mtb strain 18b following depletion of streptomycin,[10],limited activity
same,sqMBC,[11],0.016 µg/mL
same,sqMBC + huSA,[11],0.03 µg/mL
same,protein binding indicated by serum-shift MIC assay,[12]; 4% huSA,~ 75%
same,MIC,"[12]; M. tuberculosis Erdman, 7H9 media",0.008 µg/mL
same,MIC,[12]; [19],0.008 µg/mL
same,MIC,[12]; [20],0.03 µg/mL
O=C1CCc2c(OC[C@]3(O)CCN(c4c(F)cc(Cl)cc4F)C[C@H]3O)ccc(F)c2N1 [OPC-167832],activity against non-replicating Mtb in rabbit caseum MBC assay,[13],lacked appreciable activity
same,average lung CFU reduction compared to untreated controls,[14]; 5 and 20 mg/kg QD,3 log10
same,sqMBC,[11],0.001 µg/mL
same,sqMBC + huSA,[11],0.016 µg/mL
same,MIC,[12]; [19],0.0005 µg/mL
same,MIC,[12]; [20],0.008 µg/mL
same,shift in MIC in the presence of huSA,[12],16 fold
O=c1nc(N2CCN(CC3CCCCC3)CC2)sc2c([N+](=O)[O-])cc(C(F)(F)F)cc12 [PBTZ169],activity against non-replicating Mtb in rabbit caseum MBC assay,[13],lacked appreciable activity
same,average lung CFU reduction compared to untreated controls,[14]; 50 and 100 mg/kg QD,1.5 log10
same,sqMBC,[11],≤ 0.002 µg/mL
same,sqMBC + huSA,[11],0.016 µg/mL
same,MIC,[12]; [19],≤ 0.002 µg/mL
same,MIC,[12]; [20],0.016 µg/mL
same,shift in MIC in the presence of huSA,[12],8 fold
COc1ncnc(Cn2cc(C(=O)NCCO)c3ncc(C)cc32)c1C [TBA-7371],activity against non-replicating Mtb in rabbit caseum MBC assay,[13],lacked appreciable activity
same,average lung CFU reduction compared to untreated controls,[14]; 100 and 200 mg/kg BID,1.5 log10
same,sqMBC,[11],1 µg/mL
same,sqMBC + huSA,[11],1 µg/mL
same,MIC,[12]; [19],0.5 µg/mL
same,MIC,[12]; [20],1 µg/mL
CC(=O)NC[C@H]1CN(c2ccc(N3CCOCC3)c(F)c2)C(=O)O1 [linezolid],sqMBC,[11],> 8 µg/mL
same,MIC,[12]; [19],1 µg/mL
same,MIC,[12]; [20],1 µg/mL
COc1c(N2C[C@@H]3CCCN[C@@H]3C2)c(F)cc2c(=O)c(C(=O)O)cn(C3CC3)c12 [moxifloxacin],sqMBC,[11],0.125 µg/mL
same,MIC,[12]; [19],0.06 µg/mL
